Data reported in patent publication US20130315843A1, “COMPOSITION FOR REDUCTION OF TRPA1 AND TRPV1 SENSATIONS” (priority 2012, published 2013).
Entries after “also recorded” stand apart in the source; their conditions may differ. Where two headings read alike, the source gives them in different places.

Assays:
human TRPA1 [1] = molecular target: T1, human TRPA1 (Homo sapiens, UniProt O75762); assay: FLIPR Ca2+ assay, reduction of hydrogen peroxide activation of TRPA1; format: cell-based; parameters: expressed in transfected cells; conditions: for inhibition at 100 µM / inhibition at 400 µM: read-out: % Reduction of Hydrogen Peroxide TRPA1 Activation; for inhibition at 400 µM: antagonist 400 μM against 200 μM hydrogen peroxide
Method: After centrifugation, a pellet of cells was formed in the bottom of the tube separating them from the supernatant solution.
The pelleted cells were re-suspended in 10 ml assay buffer and 90 μl aliquots (˜50,000 cells) per well delivered to a 96-well assay plate containing 10 μl of test compounds ([…]) or buffer control and incubated at room temperature for 30 minutes.

human TRPV1 = human TRPV1 (Homo sapiens, UniProt Q8NER1); assay: FLIPR Ca2+ assay, reduction of L-Menthol activation of TRPV1; conditions: for Average Ca2+ Counts / % Reduction of L-Menthol TRPV1 Activation: antagonist 100 μM against 1 mM L-Menthol; for inhibition at 100 µM: read-out: % Reduction of L-Menthol TRPV1 Activation
Method: To determine whether TRPV1 was activated, the intracellular calcium ion (Ca^+2) levels from cells transfected with the TRPV1 receptor gene was measured. HEK-239 cells stably transfected with human TRPV1 were grown in 15 ml growth medium [high glucose DMEM (Dulbecco's Modification of Eagle's Medium) supplemented with 10% FBS (fetal bovine serum), 100 g/ml Penicillin/streptomycin, 100 g/ml G418] in a 75 Cm2 flask for 3 days at 33° C. in a mammalian cell culture incubator set at 5% CO2. Cells were detached with addition of 10 ml of PBS (phosphate buffered saline) by hand shaking gently. Cells were transferred to a 50 ml tube and centrifuged at 850 rpm for 3 minutes to remove PBS. After centrifugation, a pellet of cells formed in the bottom of the tube separating them from the supernatant solution. The supernatant was discarded and the cell pellet suspended in 1 ml of fresh growth medium to which 5 μl (12.5 g) of Fluo-4 AM (Molecular Probes, Inc., Eugene, Oreg.) calcium indicator was added and incubated for 30 minutes with gentle shaking.
The pelleted cells were re-suspended in 10 ml assay buffer and 90 μl aliquots (˜50,000 cells) per well delivered to a 96-well assay plate containing 10 μl of test compounds (1 mM in assay buffer, final concentration 100 μM) or buffer control and incubated at room temperature for 30 minutes. After 30 minutes, the plate was placed into a fluorometric imaging plate reader (FLIPR384 from Molecular Devices) and basal fluorescence recorded (excitation wave length 488 nm and emission wave length 510 nm). Then 20 μl of the compound being tested as a TRPV1 receptor activator was added and fluorescence recorded. […] It may be no difference (no effect), or negative (means antagonist or desensitizer) or positive (enhancer, also known as positive allosteric modulator). […] To determine if a compound was an antagonist or a desensitizer, the direct effect of a test compound was determined. For determining the direct effect of test compounds on TRPV1, 100 μl aliquots (˜50,000 cells) of cells prepared as described above were delivered to a 96-well assay plate and basal fluorescence recorded as noted above. Then 20 μl of the compound being tested as a TRPV1 receptor activator was added and fluorescence recorded. If any increase in fluorescence over background was noted, then the compound was considered an agonist. The agonist activity was expressed relative to that observed with a benchmark agonist such as 350 nM Capsaicin for TRPV1.
100 μM of antagonist was tested against 1 mM of L-Menthol to determine the level of reduced TRPV1 receptor activation by L-Menthol. Each antagonist compound was run with 1 mM of L-Menthol as a control and the antagonist activity of each compound was determined by comparing the Ca^2+ levels of the control with the antagonist compound being tested.

human TRPA1 [2] = molecular target: T1, human TRPA1; assay: FLIPR Ca2+ assay, reduction of L-Menthol activation of TRPA1; conditions: 100 μM antagonist vs 1 mM L-Menthol
human TRPA1 [3] = molecular target: T1, human TRPA1; assay: FLIPR Ca2+ assay, block of AITC activation of TRPA1; format: cell-based; parameters: expressed in transfected cells
Method: Intracellular Ca^++ levels were measured using cell based assays as described for EXAMPLES 1, 2, and 3.

[4] = 100 μM antagonist vs 500 μM hydrogen peroxide
[5] = compound 100 μM against 200 μM hydrogen peroxide, Sets 1-4
[6] = 400 μM antagonist vs 500 μM hydrogen peroxide

T1 sequence (O75762 whole entry): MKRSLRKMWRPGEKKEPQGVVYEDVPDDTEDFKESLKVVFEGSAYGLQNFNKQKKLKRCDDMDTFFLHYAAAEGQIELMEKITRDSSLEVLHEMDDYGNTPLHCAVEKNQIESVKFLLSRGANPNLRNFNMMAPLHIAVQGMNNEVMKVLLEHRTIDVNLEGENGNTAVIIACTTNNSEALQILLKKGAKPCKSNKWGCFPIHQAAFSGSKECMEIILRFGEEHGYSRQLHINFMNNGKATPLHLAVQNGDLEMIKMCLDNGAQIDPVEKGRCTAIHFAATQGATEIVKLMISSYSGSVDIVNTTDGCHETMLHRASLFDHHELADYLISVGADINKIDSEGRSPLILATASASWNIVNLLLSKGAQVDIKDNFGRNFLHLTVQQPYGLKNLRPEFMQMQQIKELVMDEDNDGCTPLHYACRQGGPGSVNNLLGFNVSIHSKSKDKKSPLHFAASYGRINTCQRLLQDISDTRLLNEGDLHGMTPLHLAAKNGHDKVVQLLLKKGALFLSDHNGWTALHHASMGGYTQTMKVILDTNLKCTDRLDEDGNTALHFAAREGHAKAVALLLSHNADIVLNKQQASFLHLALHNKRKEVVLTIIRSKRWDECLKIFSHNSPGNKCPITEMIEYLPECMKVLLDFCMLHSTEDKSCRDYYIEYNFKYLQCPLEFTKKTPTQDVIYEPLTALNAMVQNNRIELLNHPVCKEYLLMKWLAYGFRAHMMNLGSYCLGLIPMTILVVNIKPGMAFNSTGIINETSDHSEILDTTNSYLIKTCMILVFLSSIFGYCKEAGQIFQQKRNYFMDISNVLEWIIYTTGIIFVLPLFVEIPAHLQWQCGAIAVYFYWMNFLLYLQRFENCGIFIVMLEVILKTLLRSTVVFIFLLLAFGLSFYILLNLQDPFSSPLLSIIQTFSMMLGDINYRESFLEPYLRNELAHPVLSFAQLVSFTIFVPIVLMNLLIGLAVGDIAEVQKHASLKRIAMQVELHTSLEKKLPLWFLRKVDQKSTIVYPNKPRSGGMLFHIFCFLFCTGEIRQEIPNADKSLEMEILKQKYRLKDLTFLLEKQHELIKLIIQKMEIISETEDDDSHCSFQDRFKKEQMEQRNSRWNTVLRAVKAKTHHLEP
human TRPV1, sequence (Q8NER1 whole entry): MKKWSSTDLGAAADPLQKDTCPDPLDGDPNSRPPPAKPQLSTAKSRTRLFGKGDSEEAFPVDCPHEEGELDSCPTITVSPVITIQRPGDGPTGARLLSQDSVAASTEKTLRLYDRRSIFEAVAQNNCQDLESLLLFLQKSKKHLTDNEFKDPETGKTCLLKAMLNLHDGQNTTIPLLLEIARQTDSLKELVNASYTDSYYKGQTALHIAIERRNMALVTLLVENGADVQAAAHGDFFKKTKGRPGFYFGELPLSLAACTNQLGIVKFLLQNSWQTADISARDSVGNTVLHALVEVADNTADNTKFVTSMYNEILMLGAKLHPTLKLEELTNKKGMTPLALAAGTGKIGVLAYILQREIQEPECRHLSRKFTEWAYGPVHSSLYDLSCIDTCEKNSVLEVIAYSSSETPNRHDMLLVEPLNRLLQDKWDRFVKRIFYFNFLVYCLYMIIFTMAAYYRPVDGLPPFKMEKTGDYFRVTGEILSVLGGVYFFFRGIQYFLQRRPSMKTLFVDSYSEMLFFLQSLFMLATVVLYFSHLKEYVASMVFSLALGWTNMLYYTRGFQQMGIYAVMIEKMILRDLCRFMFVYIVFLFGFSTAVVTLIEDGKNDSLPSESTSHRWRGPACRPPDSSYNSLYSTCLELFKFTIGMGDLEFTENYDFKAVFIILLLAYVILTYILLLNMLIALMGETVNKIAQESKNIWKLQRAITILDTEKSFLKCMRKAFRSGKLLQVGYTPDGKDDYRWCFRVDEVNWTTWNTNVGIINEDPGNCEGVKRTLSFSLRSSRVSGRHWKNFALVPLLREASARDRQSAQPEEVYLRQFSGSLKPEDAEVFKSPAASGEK

| Compound | Block of hydrogen peroxide activation of TRPA1 (human TRPA1 [1]; [4]) | Average Ca++ Counts (human TRPA1 [1]; [5]) [Counts] | inhibition at 100 µM (human TRPA1 [1]; [5]) [%] | Average Ca2+ Counts (human TRPV1) [Counts] | inhibition at 100 µM (human TRPV1) [%] | Block of L-Menthol activation of TRPA1 (human TRPA1 [2]) | Block of AITC activation of TRPA1 (human TRPA1 [3]; 100 μM antagonist) | inhibition at 100 µM (human TRPA1 [1]) [%] | Average Ca++ Counts (human TRPA1 [1]) [Counts] | Block of hydrogen peroxide activation of TRPA1 (human TRPA1 [1]) | % Reduction of Hydrogen Peroxide TRPA1 Activation (human TRPA1 [1]; [5]) [%] | % Reduction of L-Menthol TRPV1 Activation (human TRPV1) [%] | Block of hydrogen peroxide activation of TRPA1 (human TRPA1 [1]; [6]) | inhibition at 400 µM (human TRPA1 [1]) [%] | Block of AITC activation of TRPA1 (human TRPA1 [3]; 400 μM antagonist) |
| --- | --- | --- | --- | --- | --- | --- | --- | --- | --- | --- | --- | --- | --- | --- | --- |
| CCCCCCCCCCCCCCCCCC(=O)OCC(O)CO (racemic) [1-stearoyl-rac-glycerol] | Block menthol, H2O2, and AITC on TRPA1 | 3131.0 | 55.5 | 4708.0 | 26.4 | Block menthol, H2O2, and AITC on TRPA1 | Block menthol, H2O2, and AITC on TRPA1 | – | – | – | – | – | – | – | – |
| CC(S)C(C)S (stereo not shown) [2,3-butanedithiol] | Block menthol, H2O2, and AITC on TRPA1 | 1280.5 | 87.9 | 586.0 | 64.8 | Block menthol, H2O2, and AITC on TRPA1 | Block menthol, H2O2, and AITC on TRPA1 | – | – | – | – | – | – | – | – |
| CC1(O)CSC(C)(O)CS1 (stereo not shown) [2,5-dimethyl-1,4-dithiane-2,5-diol] | Block menthol, H2O2, and AITC on TRPA1 | 2420.0 | 77.2 | 713.7 | 58.9 | Block menthol, H2O2, and AITC on TRPA1 | Block menthol, H2O2, and AITC on TRPA1 | – | – | – | – | – | – | – | – |
| Cc1cc(S)c(C)o1 [2,5-dimethylfuran-3-thiol] | – | – | – | 1443.0 | 25.2 | BLOCK BOTH MENTHOL AND AITC ON TRPA1 | BLOCK BOTH MENTHOL AND AITC ON TRPA1 | – | – | – | – | – | – | – | – |
| SCCc1cnccn1 [2-Pyrazinyl ethanethiol] | Block menthol, H2O2, and AITC on TRPA1 | – | – | – | – | Block menthol, H2O2, and AITC on TRPA1 | Block menthol, H2O2, and AITC on TRPA1 | – | – | – | – | – | – | – | – |
| O=C(CCl)c1ccccc1 [2-chloroacetophenone] | Block menthol, H2O2, and AITC on TRPA1 | 1199.5 | – | 1313.0 | 31.2 | Block menthol, H2O2, and AITC on TRPA1 | Block menthol, H2O2, and AITC on TRPA1 | 88.7 | – | – | – | – | – | – | – |
| CCc1ccccc1S [2-ethylbenzenethiol] | Block menthol, H2O2, and AITC on TRPA1 | 4808.5 | 54.6 | – | – | Block menthol, H2O2, and AITC on TRPA1 | Block menthol, H2O2, and AITC on TRPA1 | – | – | – | – | – | – | – | – |
| CC1SCCS1 [2-methyl-1,3-dithiolane] | Block menthol, H2O2, and AITC on TRPA1 | 2402.0 | 72.5 | 2650.5 | 34.3 | Block menthol, H2O2, and AITC on TRPA1 | Block menthol, H2O2, and AITC on TRPA1 | – | – | – | – | – | – | – | – |
| Cc1occc1S [2-methyl-3-furanthiol] | – | – | – | 2835.5 | 38.9 | BLOCK BOTH MENTHOL AND AITC ON TRPA1; also recorded: BLOCK ONLY MENTHOL/TRPA1 | BLOCK BOTH MENTHOL AND AITC ON TRPA1 | – | – | – | – | – | – | – | – |
| CCCCCCCCCC(C)=O [2-undecanone] | – | – | – | 1282.3 | 32.6 | Block menthol, H2O2, and AITC on TRPA1 | Block menthol, H2O2, and AITC on TRPA1 | 56.8 | 4581.0 | Block menthol, H2O2, and AITC on TRPA1 | – | – | – | – | – |
| CSCCCN=C=S [3-(methylthio)propyl isothiocyanate] | – | – | – | 1426.7 | 25.9 | BLOCK BOTH MENTHOL AND AITC ON TRPA1 | BLOCK BOTH MENTHOL AND AITC ON TRPA1 | – | – | – | – | – | – | – | – |
| CCCCOC(=O)c1ccc(O)cc1 [butyl 4-hydroxybenzoate] | – | – | – | 319.0 | 77.2 | Block menthol, H2O2, and AITC on TRPA1 | Block menthol, H2O2, and AITC on TRPA1 | 96.1 | 411.0 | Block menthol, H2O2, and AITC on TRPA1 | – | – | – | – | – |
| [Cu+].[I-] [copper(i) iodide] | Block menthol, H2O2, and AITC on TRPA1 | – | – | 651.5 | – | Block menthol, H2O2, and AITC on TRPA1 | Block menthol, H2O2, and AITC on TRPA1 | – | – | – | 90.4 | 89.8 | – | – | – |
| c1ccc(SSc2ccccc2)cc1 [diphenyl disulfide] | – | – | – | 1630.5 | 64.9 | Block menthol, H2O2, and AITC on TRPA1 | Block menthol, H2O2, and AITC on TRPA1 | 81.1 | 1112.0 | Block menthol, H2O2, and AITC on TRPA1 | – | – | – | – | – |
| CC(C)OC(=O)C(C)C [isobutyric acid isopropyl ester] | Block both H2O2 and AITC on TRPA1 | 3392.5 | 51.8 | – | – | – | Block both H2O2 and AITC on TRPA1 | – | – | – | – | – | – | – | – |
| COc1ccccc1C=CC=O [o-Methoxycinnamaldehyde] | – | – | – | – | – | – | – | – | – | – | – | – | Block both H2O2 and AITC on TRPA1 | 51 | Block both H2O2 and AITC on TRPA1 |
| O=C(Oc1ccccc1)c1ccccc1O [phenyl salicylate] | Block both H2O2 and AITC on TRPA1 | 2893.5 | 72.7 | – | – | – | Block both H2O2 and AITC on TRPA1 | – | – | – | – | – | – | – | – |
| O=CCc1ccccc1 [phenylacetaldehyde] | Block menthol, H2O2, and AITC on TRPA1 | 2578.5 | 75.7 | 919.3 | 49.4 | Block menthol, H2O2, and AITC on TRPA1 | Block menthol, H2O2, and AITC on TRPA1 | – | – | – | – | – | – | – | – |
| O=C(CCc1ccc(O)cc1)c1c(O)cc(O)cc1O [phloretin] | Block menthol, H2O2, and AITC on TRPA1 | 215.0 | 96.9 | 4616.5 | 27.9 | Block menthol, H2O2, and AITC on TRPA1 | Block menthol, H2O2, and AITC on TRPA1 | – | – | – | – | – | – | – | – |
| O=C(O)CCC(=O)O [succinic acid] | – | – | – | 1045.0 | 43.6 | BLOCK BOTH MENTHOL AND AITC ON TRPA1 | BLOCK BOTH MENTHOL AND AITC ON TRPA1 | – | – | – | – | – | – | – | – |
| CCCC/C=C/C=C/C=O [trans, trans-2,4-Nonadienal] | – | – | – | – | – | – | – | – | – | – | – | – | Block both H2O2 and AITC on TRPA1 | 67 | Block both H2O2 and AITC on TRPA1 |
| zinc gluconate | – | – | – | 3963.5 | – | BLOCK BOTH MENTHOL AND AITC ON TRPA1 | BLOCK BOTH MENTHOL AND AITC ON TRPA1 | – | – | – | – | 38.1 | – | – | – |
